Test results reported in patent US20090318493A1 (Roche Palo Alto LLC, priority 2008, published 2009).
Where two headings read alike, the source gives them in different places.

Key:
Type in all cases: binding
hSERT transporter = biological target: T1, hSERT transporter (Homo sapiens, UniProt P31645); test: Human serotonin transporter (hSERT) scintillation proximity assay, competition with [3H]-Citalopram
T1 construct: expressed in transfected cells; membranes prepared
From the text: Screening for Human Serotonin Transporter (hSERT) Antagonists Using a Scintillation Proximity Assay (SPA)
The screening assay of this example was used to determine the affinity of ligands at the hSERT transporter by competition with [^3H]-Citalopram.
Scintillation Proximity Assay (SPA) works by bringing radioligand within close proximity to the bead's scintillant to stimulate light emission. In this assay, the receptor-containing membranes were pre-coupled to the SPA beads and the binding of the appropriate radioligand to the transporter was measured. The light emission was proportional to the amount of bound radioligand. Unbound radioligand produced no signal as a result of distant proximity to scintillant (lack of energy transfer).
Cells are released from culture flasks using PBS for 1-2 minutes. The cells were subsequently centrifuged at 1000 g's for 5 minutes and resuspended in PBS prior to being used in the membrane preparation.
(§1) Cell membranes were prepared using a membrane preparation buffer of 50 mM TRIS (pH 7.4). Cell membranes were prepared from a single cube (7.5×10^9 cells total). Cells were homogenized using a Polytron (setting medium for a 4 second burst). The homogenate was then centrifuged at 48,000×g for 15 minutes, the supernatant subsequently removed and discarded, and the pellet resuspended with fresh buffer. After a second centrifugation, the pellet was re-homogenized and brought to a final volume determined during the assay. Typically, membrane portions were aliquoted in 3 mg/ml (w:v). and stored at −80° C.
Compounds of the invention were diluted from 10 mM to 0.1 nM FAC (10 point curves, whole log/half log dilutions) via a Beckman Biomek 2000 using a serial dilution protocol. The test compounds were then transferred (20 μl/well) and the [^3H]-Citalopram radioligand was added at 50 μl/well. Membrane and beads were prepared to a ratio of 10 μg: 0.7 mg, with 0.7 mg PVT-WGA Amersham beads (Cat# RPQ0282V) added per well. 130 μl of the membrane: bead mixture was added to the assay plate.
The % inhibition was calculated for each compound tested [(Compound counts per minute (CPM) at maximum concentration-Non-Specific CPM)/Total CPM*100].
(§2) where max=total binding, min=non specific binding, x=concentration (M) of the tested compound and n=Hill slope. The inhibition dissociation constant (Ki) of each compound was determined according to the method of Cheng-Prusoff and then converted into negative logarithm (pKi) of the Ki.

hNET transporter = biological target: T2, hNET transporter (Homo sapiens, UniProt P23975); test: Human norepinephrine transporter (hNET) scintillation proximity assay, competition with [3H]-Nisoxetine
T2 construct: expressed in transfected cells; membranes prepared
T2 sequence (P23975 whole entry): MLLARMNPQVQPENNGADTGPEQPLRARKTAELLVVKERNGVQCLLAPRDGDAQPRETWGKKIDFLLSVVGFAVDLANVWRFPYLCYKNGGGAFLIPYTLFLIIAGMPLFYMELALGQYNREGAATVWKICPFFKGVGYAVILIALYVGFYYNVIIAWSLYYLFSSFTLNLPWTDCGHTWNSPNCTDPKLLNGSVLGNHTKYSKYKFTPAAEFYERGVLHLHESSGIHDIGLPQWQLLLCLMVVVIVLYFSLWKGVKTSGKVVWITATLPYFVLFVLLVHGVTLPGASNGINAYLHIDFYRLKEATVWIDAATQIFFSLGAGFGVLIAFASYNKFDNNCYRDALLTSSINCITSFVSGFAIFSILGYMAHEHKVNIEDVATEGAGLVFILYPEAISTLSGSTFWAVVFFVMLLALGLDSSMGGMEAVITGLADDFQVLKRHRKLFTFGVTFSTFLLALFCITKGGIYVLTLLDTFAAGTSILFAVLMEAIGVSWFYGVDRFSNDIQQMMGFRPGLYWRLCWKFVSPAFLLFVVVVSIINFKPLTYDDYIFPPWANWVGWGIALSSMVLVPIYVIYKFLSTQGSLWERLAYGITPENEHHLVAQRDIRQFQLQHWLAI
Experimental: This assay was used to determine the affinity of ligands for the hNET transporter by competition with [^3H]-Nisoxetine. As in the hSERT assay of the above example, receptor-containing membranes were pre-coupled to the SPA beads and the binding of the appropriate radioligand to the transporter was measured. The light emission was proportional to the amount of bound radioligand, with unbound radioligand producing no signal.
HEK-293 cells (Tatsumi et al., Eur. J. Pharmacol. 1997, 30, 249-258) stably expressing recombinant hNET (Clone: HEK-hNET #2) were maintained with media (DMEM hi glucose with 10% FBS, 300 μg/ml G418 and 2 mM L-Glutamine) and incubated at 37° C. with 5% CO2. Cells were released from culture flasks using PBS for 1-2 minutes. The cells were subsequently centrifuged at 1000 g's for 5 minutes and resuspended in PBS prior to being used in the membrane preparation.
as §1, with “(7.5×10^9cells” for “(7.5×10^9 cells”, “3-6 mg/mil” for “3 mg/ml”
^3[H] […] Compounds of the invention were diluted from 10 mM to 0.1 nM FAC (10 point curves, whole log /half log dilutions) via a Beckman Biomek 2000 using a serial dilution protocol. The test compounds were then transferred (20 μl/well) and the radioligand was added at 50 μl/well. Membrane and beads were prepared to a ratio of 10 μg: 0.7 mg, with 0.7 mg PVT-WGA Amersham beads (Cat# RPQ0282V) added per well. 130 μl of the membrane: bead mixture was added to the assay plate. The mixtures were allowed to stand at room temperature for one hour, and were then counted on a Packard TopCount LCS, a generic SPA counting protocol settings (Energy Range: Low, Efficiency Mode: Normal, Region A: 1.50-35.00, Region B: 1.50-256.00, Count Time (min.): 0.40, Background Subtract: none, Half-Life Correction: no, Quench Indicator: tSIS, Platemap blank subtraction: No, Cross talk reduction: Off).
The % inhibition was calculated for each compound tested [(Compound CPM at maximum concentration-Non-Specific CPM)/Total CPM*100]. The concentration producing 50% inhibition (IC50) was determined using an iterative non-linear curve fitting technique with Activity Base/Xlfit using the following equation:
as §2

hDAT = biological target: T3, hDAT (Homo sapiens, UniProt Q01959); test: Human dopamine transporter scintillation proximity assay, competition with [3H]-Vanoxerine
T3 construct: expressed in transfected cells; plated whole cells
T3 sequence (Q01959 whole entry): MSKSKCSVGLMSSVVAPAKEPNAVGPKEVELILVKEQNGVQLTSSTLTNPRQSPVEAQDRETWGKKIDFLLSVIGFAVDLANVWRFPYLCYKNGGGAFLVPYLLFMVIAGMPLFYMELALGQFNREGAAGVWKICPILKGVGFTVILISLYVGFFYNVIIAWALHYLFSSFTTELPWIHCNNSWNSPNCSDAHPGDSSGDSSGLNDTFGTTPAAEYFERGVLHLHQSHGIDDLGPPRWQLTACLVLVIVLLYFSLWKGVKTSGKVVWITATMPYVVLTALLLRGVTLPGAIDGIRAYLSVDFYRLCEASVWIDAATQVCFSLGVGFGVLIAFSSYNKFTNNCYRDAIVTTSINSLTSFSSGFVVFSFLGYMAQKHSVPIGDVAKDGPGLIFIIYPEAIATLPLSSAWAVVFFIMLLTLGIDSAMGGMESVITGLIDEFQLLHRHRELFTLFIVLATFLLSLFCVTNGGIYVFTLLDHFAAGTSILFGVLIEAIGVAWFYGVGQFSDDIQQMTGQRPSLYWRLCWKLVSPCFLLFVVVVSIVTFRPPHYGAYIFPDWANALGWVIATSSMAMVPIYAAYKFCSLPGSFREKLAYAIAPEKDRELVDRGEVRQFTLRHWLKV
Experimental: This assay was used to determine the affinity of ligands for the dopamine transporter by competition with [^3H]-Vanoxerine.
Cells were plated four hours prior to experiment by placing approximately 30,000 cells per well (in PBS) on white, opaque Cell-Tak coated 96 well plates. Extra buffer was apriated from the cell plates using an ELx405 plate washer.
Compounds of the invention were diluted from 10 mM to 0.1 nM FAC (10 point curves, whole log/half log dilutions) via a Beckman Biomek 2000 using a 10-point dilution protocol. The mixtures were allowed to stand at room temperature for 30 minutes, and were then counted on a Packard TopCount LCS, a generic SPA counting protocol settings, Count Time (min.): 0.40, Background Subtract: none, Half-Life Correction: none, Quench Indicator: tSIS, Platemap blank subtraction: none, Cross talk reduction: Off).
The % inhibition was calculated for each compound tested [(Compound CPM at maximum concentration-Non-Specific CPM)/Total CPM*100].
as §2

[1] = Table 1, read-out: pIC50 SERT (converted)
[2] = Table 1, read-out: pIC50 NET (converted)
[3] = Table 1, read-out: pIC50 DAT (converted)

T1 sequence (P31645 whole entry): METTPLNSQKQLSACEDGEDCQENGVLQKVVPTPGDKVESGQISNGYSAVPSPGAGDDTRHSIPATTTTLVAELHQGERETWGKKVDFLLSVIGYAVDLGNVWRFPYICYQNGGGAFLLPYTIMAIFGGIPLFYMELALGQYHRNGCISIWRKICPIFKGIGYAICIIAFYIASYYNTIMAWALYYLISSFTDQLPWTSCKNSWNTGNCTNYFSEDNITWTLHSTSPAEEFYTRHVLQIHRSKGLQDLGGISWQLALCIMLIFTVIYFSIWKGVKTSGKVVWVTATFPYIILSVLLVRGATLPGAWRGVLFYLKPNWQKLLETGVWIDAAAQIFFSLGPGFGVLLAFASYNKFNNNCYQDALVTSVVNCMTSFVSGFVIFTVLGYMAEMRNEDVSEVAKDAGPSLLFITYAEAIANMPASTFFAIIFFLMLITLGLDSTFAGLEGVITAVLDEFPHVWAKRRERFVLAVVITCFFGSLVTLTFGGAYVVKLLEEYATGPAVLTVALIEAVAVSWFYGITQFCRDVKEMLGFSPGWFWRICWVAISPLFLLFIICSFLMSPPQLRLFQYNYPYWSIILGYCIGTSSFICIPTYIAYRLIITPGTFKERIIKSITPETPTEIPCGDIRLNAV

Row | IC50 (hSERT transporter; [1]) [nM] | Structure (SMILES) | IC50 (hNET transporter; [2]) [nM] | IC50 (hDAT; [3]) [nM] | IC50 (hSERT transporter) [nM] | IC50 (hDAT) [nM] | IC50 (hNET transporter) [nM]
1 | 7.08 | CCCC1(C(=O)c2ccc(Cl)c(Oc3ccccc3)c2)CCNCC1 [Compound 46, (4-Chloro-3-phenoxy-phenyl)-(4-propyl-piperidin-4-yl)-methanone] | 11.5 | 30.2 | – | – | –
2 | – | CC(C)C[C@@]1(C(=O)c2cc(F)c(N)c(Cl)c2)CCNC1 [Compound 23] | 3.98 | – | 4.79 | 6.17 | –
3 | – | O=C(c1ccccc1)C1(Cc2ccc(Cl)c(Cl)c2)CCNCC1 [Compound 43, [4-(3,4-Dichloro-benzyl)-piperidin-4-yl]-phenyl-methanone] | 1510 | 575 | 75.9 | – | –
4 | – | CC(C)C[C@@]1(C(=O)c2ccc(N)c(Cl)c2)CCNC1 [Compound 27, (4-Amino-3-chloro-phenyl)-((R)-3-isobutyl-pyrrolidin-3-yl)-methanone] | – | 174 | 8.32 | – | 55
5 | – | O=C(c1ccc(Cl)c(Cl)c1)C1(CC2CCCO2)CCNCC1 (stereo not drawn) [Compound 42, (3,4-Dichloro-phenyl)-[4-(tetrahydro-furan-2-ylmethyl)-piperidin-4-yl]-methanone] | 47.9 | – | 1 | 3.63 | –
6 | – | CC(C)CC[C@@]1(C(=O)c2cc(F)c(N)c(Cl)c2)CCNC1 [Compound 21, (4-Amino-3-chloro-5-fluoro-phenyl)-[(R)-3-(3-methyl-butyl)-pyrrolidin-3-yl]-methanone] | 1.91 | – | 3.31 | 1.51 | –
7 | 1.48 | O=C(c1ccc(Cl)c(Cl)c1)C1(CC2CCCC2)CCNCC1 [Compound 39, (4-Cyclopentylmethyl-piperidin-4-yl)-(3,4-dichloro-phenyl)-methanone] | 41.7 | 3.16 | – | – | –
8 | – | CCCC1(C(=O)c2ccc(Cl)c(Oc3ccccc3F)c2)CCNC1 (stereo not drawn) [Compound 17, [4-Chloro-3-(2-fluoro-phenoxy)-phenyl]-(3-propyl-pyrrolidin-3-yl)-methanone] | 24 | – | 47.9 | 15.8 | –
9 | – | CC(C)(C)CC[C@@]1(C(=O)c2cc(F)c(N)c(Cl)c2)CCNC1 [Compound 26, (4-Amino-3-chloro-5-fluoro-phenyl)-[(R)-3-(3,3-dimethyl-butyl)-pyrrolidin-3-yl]-methanone] | 25.1 | – | 75.9 | 26.9 | –
10 | 0.501 | CC1(CC2(C(=O)c3ccc(Cl)c(Cl)c3)CCNCC2)CC1 [Compound 34, (3,4-Dichloro-phenyl)-[4-(1-methyl-cyclopropylmethyl)-piperidin-4-yl]-methanone] | 66.1 | 2.24 | – | – | –
11 | – | CC(C)(C)CC[C@]1(C(=O)c2ccc(Cl)c(Cl)c2)CCCNC1 [Compound 59, (3,4-Dichloro-phenyl)-[(S)-3-(3,3-dimethyl-butyl)-piperidin-3-yl]-methanone] | – | 324 | 14.5 | – | 10.5
12 | – | CCCC[C@]1(C(=O)c2ccc(Cl)c(Cl)c2N)CC2CC[C@H]1N2 [Compound 3] | 182 | – | 83.2 | 70.8 | –
13 | – | CC(C)C[C@@]1(C(=O)c2ccc(Cl)c(Cl)c2N)CCNC1 [Compound 2, (2-Amino-3,4-dichloro-phenyl)-((R)-3-isobutyl-pyrrolidin-3-yl)-methanone] | – | 692 | 2.19 | – | 38
14 | 1.12 | COC(C)(C)CC1(C(=O)c2ccc(Cl)c(Cl)c2)CCNCC1 [Compound 37, (3,4-Dichloro-phenyl)-[4-(2-methoxy-2-methyl-propyl)-piperidin-4-yl]-methanone] | 105 | 4.79 | – | – | –
15 | 2.4 | CC(C)CC1(C(=O)c2ccc(Cl)c(Oc3ccccc3)c2)CCNCC1 [Compound 45, (4-Chloro-3-phenoxy-phenyl)-(4-isobutyl-piperidin-4-yl)-methanone] | 2.57 | 34.7 | – | – | –
16 | – | CCCC1(C(=O)c2ccc(Cl)c(Sc3ccccc3)c2)CCNC1 (stereo not drawn) [Compound 15, (4-Chloro-3-phenylsulfanyl-phenyl)-(3-propyl-pyrrolidin-3-yl)-methanone] | – | 110 | 34.7 | – | 87.1
17 | – | CCCC1(C(=O)c2ccc(Cl)c(Oc3ccc(F)cc3)c2)CCNC1 (stereo not drawn) [Compound 18, [4-Chloro-3-(4-fluoro-phenoxy)-phenyl]-(3-propyl-pyrrolidin-3-yl)-methanone] | 15.1 | – | 24 | 16.6 | –
18 | – | CCCC1(C(=O)c2ccc(Cl)c(Oc3ccccc3)c2)CCNC1 (stereo in doubt) [Compound 29, (4-Chloro-3-phenoxy-phenyl)-((S)-3-propyl-pyrrolidin-3-yl)-methanone] | 2.63 | – | 13.2 | 10.5 | –
19 | 0.589 | Cc1ccc(C(=O)C2(CC(C)C)CCNCC2)cc1Cl [Compound 35, (3-Chloro-4-methyl-phenyl)-(4-isobutyl-piperidin-4-yl)-methanone] | 45.7 | 10.5 | – | – | –

Row | Structure (SMILES) | IC50 (hSERT transporter; [1]) [nM] | IC50 (hNET transporter; [2]) [nM] | IC50 (hDAT; [3]) [nM] | IC50 (hSERT transporter) [nM] | IC50 (hDAT) [nM] | IC50 (hNET transporter) [nM]
20 | CCCC1(C(=O)c2ccc(Cl)c(S(=O)(=O)c3ccccc3)c2)CCNC1 (stereo not drawn) [Compound 16, (3-Benzenesulfonyl-4-chloro-phenyl)-(3-propyl-pyrrolidin-3-yl)-methanone] | 191 | 4900 | 661 | – | – | –
21 | CC(C)CC[C@]1(C(=O)c2cc(F)c(N)c(Cl)c2)CCNC1 [Compound 22, (4-Amino-3-chloro-5-fluoro-phenyl)-[(S)-3-(3-methyl-butyl)-pyrrolidin-3-yl]-methanone] | 132 | – | – | – | 83.2 | 33.1
22 | CC(C)(C)CCOc1cc(C(=O)C2(CCC(C)(C)C)CCNC2)ccc1Cl (stereo not drawn) [Compound 4, [4-Chloro-3-(3,3-dimethyl-butoxy)-phenyl]-[3-(3,3-dimethyl-butyl)-pyrrolidin-3-yl]-methanone] | 85.1 | 912 | 1000 | – | – | –
